The results in this text go back to patent US8901118B2, “Compounds and methods for kinase modulation, and indications therefor” (Plexxikon Inc., priority 2010, dated 2014).

Structures are written as SMILES.

Chain of c-Kit kinase (P10721 26-976): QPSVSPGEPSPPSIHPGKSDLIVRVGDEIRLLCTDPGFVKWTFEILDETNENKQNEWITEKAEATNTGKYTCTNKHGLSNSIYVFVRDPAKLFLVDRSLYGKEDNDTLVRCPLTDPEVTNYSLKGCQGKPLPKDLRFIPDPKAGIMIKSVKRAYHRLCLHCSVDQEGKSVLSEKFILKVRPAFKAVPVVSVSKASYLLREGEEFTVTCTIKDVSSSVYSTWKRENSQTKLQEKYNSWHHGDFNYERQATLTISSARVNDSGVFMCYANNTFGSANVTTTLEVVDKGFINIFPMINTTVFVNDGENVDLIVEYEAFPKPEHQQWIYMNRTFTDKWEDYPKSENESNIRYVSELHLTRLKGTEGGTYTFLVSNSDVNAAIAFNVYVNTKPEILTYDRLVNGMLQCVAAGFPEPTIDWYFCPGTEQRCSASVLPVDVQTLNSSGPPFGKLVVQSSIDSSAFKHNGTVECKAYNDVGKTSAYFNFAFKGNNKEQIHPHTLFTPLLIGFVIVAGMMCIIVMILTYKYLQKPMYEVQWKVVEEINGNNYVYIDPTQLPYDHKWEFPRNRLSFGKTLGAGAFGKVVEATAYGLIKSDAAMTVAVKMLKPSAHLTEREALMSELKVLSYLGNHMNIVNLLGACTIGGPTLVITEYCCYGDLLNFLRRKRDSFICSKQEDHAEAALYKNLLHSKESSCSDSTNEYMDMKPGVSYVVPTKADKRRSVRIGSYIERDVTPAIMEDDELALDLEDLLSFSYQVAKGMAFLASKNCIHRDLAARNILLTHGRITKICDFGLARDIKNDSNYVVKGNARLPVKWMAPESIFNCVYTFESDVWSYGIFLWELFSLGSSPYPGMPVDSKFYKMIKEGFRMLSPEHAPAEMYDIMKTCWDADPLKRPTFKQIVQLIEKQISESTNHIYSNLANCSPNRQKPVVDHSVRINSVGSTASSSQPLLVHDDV

In this assay the target is c-Kit kinase (Homo sapiens, UniProt P10721). The assay can be described thus: c-Kit kinase biochemical activity assay (AlphaScreen, biotin-(E4Y)10 phosphorylation). The following applies: 100 μM ATP; read-out: Biochemical Inhibition IC50 Kit. Put shortly:
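Phosphorylation of 30 nM biotin-(E4Y)10 by c-Kit (0.75 ng per reaction) with 100 µM ATP in HEPES pH 7.5 buffer with Mg2+/Mn2+, 5% DMSO, 1 h at room temperature; 8-point 1:2 compound dilutions. AlphaScreen detection with streptavidin donor and PY20 acceptor beads after EDTA stop. IC50 from signal versus concentration.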
On the technique in general: Bead proximity is the source of the signal in Alpha formats.
The IC50 is the concentration at which inhibition is half-maximal. For `Clc1cnc2[nH]cc(Cc3cnc(NC4CCCCC4)nc3)c2c1` [Compound P-3001, [5-(5-chloro-1H-pyrrolo[2,3-b]pyridin-3-ylmethyl)-pyrimidin-2-yl]-cyclohexyl-amine], the IC50 was less than 1000 nM.
To `Clc1cnc2[nH]cc(Cc3cnc(NC4CCCC4)nc3)c2c1` [Compound P-3003, [5-(5-Chloro-1H-pyrrolo[2,3-b]pyridin-3-ylmethyl)-pyrimidin-2-yl]-cyclopentyl-amine] belongs greater than 1000 nM; to `Clc1cnc2[nH]cc(Cc3cnc(NC4CC4)nc3)c2c1` [Compound P-3005, [5-(5-Chloro-1H-pyrrolo[2,3-b]pyridin-3-ylmethyl)-pyrimidin-2-yl]-cyclopropyl-amine], greater than 1000 nM.
To `Clc1cnc2[nH]cc(Cc3cnc(NC4CCCCCC4)nc3)c2c1` [Compound P-3006, [5-(5-Chloro-1H-pyrrolo[2,3-b]pyridin-3-ylmethyl)-pyrimidin-2-yl]-cycloheptyl-amine] belongs less than 1000 nM; to `COc1ccc(Nc2ncc(Cc3c[nH]c4ncc(C)cc34)cn2)cc1F` [Compound P-3023, (3-Fluoro-4-methoxy-phenyl)-[5-(5-methyl-1H-pyrrolo[2,3-b]pyridin-3-ylmethyl)-pyrimidin-2-yl]-amine], less than 100 nM; to `Cc1cnc2[nH]cc(Cc3cnc(Nc4cc(-c5ccc(F)cc5)n[nH]4)nc3)c2c1` [Compound P-3028, [5-(4-Fluoro-phenyl)-2H-pyrazol-3-yl]-[5-(5-methyl-1H-pyrrolo[2,3-b]pyridin-3-ylmethyl)-pyrimidin-2-yl]-amine], less than 1000 nM.
To `Cc1cnc2[nH]cc(Cc3cnc(Nc4cc(C(C)(C)C)n[nH]4)nc3)c2c1` [Compound P-3029, (5-tert-Butyl-2H-pyrazol-3-yl)-[5-(5-methyl-1H-pyrrolo[2,3-b]pyridin-3-ylmethyl)-pyrimidin-2-yl]-amine] belongs less than 1000 nM.
On to `Cc1cnc2[nH]cc(Cc3cnc(Nc4ccc(C(C)(C)C)cc4)nc3)c2c1` [Compound P-3030, (4-tert-Butyl-phenyl)-[5-(5-methyl-1H-pyrrolo[2,3-b]pyridin-3-ylmethyl)-pyrimidin-2-yl]-amine amine], for which the half-inhibitory concentration (IC50) was less than 100 nM.
To `Cc1cnc2[nH]cc(Cc3cnc(Nc4ccc(C(O)(C(F)(F)F)C(F)(F)F)cc4)nc3)c2c1` [Compound P-3031, 1,1,1,3,3,3-Hexafluoro-2-{4-[5-(5-methyl-1H-pyrrolo[2,3-b]pyridin-3-ylmethyl)-pyrimidin-2-ylamino]-phenyl}-propan-2-ol] belongs less than 100 nM.
For the molecule `Cc1cnc2[nH]cc(Cc3cnc(Nc4cc(C5CC5)n[nH]4)nc3)c2c1` [Compound P-3032, (5-Cyclopropyl-2H-pyrazol-3-yl)-[5-(5-methyl-1H-pyrrolo[2,3-b]pyridin-3-ylmethyl)-pyrimidin-2-yl]-amine], the IC50 is less than 1000 nM.
`CSc1ccc(Nc2ncc(Cc3c[nH]c4ncc(C)cc34)cn2)cc1` [Compound P-3033, [5-(5-Methyl-1H-pyrrolo[2,3-b]pyridin-3-ylmethyl)-pyrimidin-2-yl]-(4-methylsulfanyl-phenyl)-amine]: the IC50 was less than 10 nM.
With `Cc1cnc2[nH]cc(Cc3cnc(Nc4ccc(S(C)(=O)=O)cc4)nc3)c2c1` [Compound P-3034, (4-Methanesulfonyl-phenyl)-[5-(5-methyl-1H-pyrrolo[2,3-b]pyridin-3-ylmethyl)-pyrimidin-2-yl]-amine], the IC50 is less than 100 nM.
As for `Cc1cnc2[nH]cc(Cc3cnc(Nc4cc(C(F)(F)F)n[nH]4)nc3)c2c1` [Compound P-3037, [5-(5-Methyl-1H-pyrrolo[2,3-b]pyridin-3-ylmethyl)-pyrimidin-2-yl]-(5-trifluoromethyl-2H-pyrazol-3-yl)-amine], the IC50 was less than 1000 nM.
With `Cc1cnc2[nH]cc(Cc3cnc(Nc4cc(OC(C)C)n[nH]4)nc3)c2c1` [Compound P-3038, (5-Isopropoxy-2H-pyrazol-3-yl)-[5-(5-methyl-1H-pyrrolo[2,3-b]pyridin-3-ylmethyl)-pyrimidin-2-yl]-amine], the IC50 is less than 1000 nM.
As for `CCc1ccc(Nc2ccc(Cc3c[nH]c4ncc(C)cc34)c(F)n2)cn1` [Compound P-3048, (6-Ethyl-pyridin-3-yl)-[6-fluoro-5-(5-methyl-1H-pyrrolo[2,3-b]pyridin-3-ylmethyl)-pyridin-2-yl]-amine], the IC50 was less than 100 nM.
On to `CCc1ccc(Nc2ccc(C(=O)c3c[nH]c4ncc(C)cc34)c(F)n2)cn1` [Compound P-3049, [6-(6-Ethyl-pyridin-3-ylamino)-2-fluoro-pyridin-3-yl]-(5-methyl-1H-pyrrolo[2,3-b]pyridin-3-yl)-methanone], for which the IC50 was less than 100 nM.
Regarding `Cc1cnc2[nH]cc(Cc3ccc(Nc4ccc(C5CC5)nc4)nc3F)c2c1` [Compound P-3050, (6-Cyclopropyl-pyridin-3-yl)-[6-fluoro-5-(5-methyl-1H-pyrrolo[2,3-b]pyridin-3-ylmethyl)-pyridin-2-yl]-amine], the IC50 is less than 100 nM.
To `Cc1cnc2[nH]cc(C(=O)c3ccc(Nc4ccc(C5CC5)nc4)nc3F)c2c1` [Compound P-3051, [6-(6-Cyclopropyl-pyridin-3-ylamino)-2-fluoro-pyridin-3-yl]-(5-methyl-1H-pyrrolo[2,3-b]pyridin-3-yl)-methanone] belongs less than 100 nM; to `O=C(c1ccc(Nc2ccc(C3CC3)nc2)nc1F)c1c[nH]c2ncccc12` [Compound P-3052, [6-(6-Cyclopropyl-pyridin-3-ylamino)-2-fluoro-pyridin-3-yl]-(1H-pyrrolo[2,3-b]pyridin-3-yl)-methanone], less than 100 nM; to `Fc1nc(Nc2ccc(C3CC3)nc2)ccc1Cc1c[nH]c2ncccc12` [Compound P-3053, (6-Cyclopropyl-pyridin-3-yl)-[6-fluoro-5-(1H-pyrrolo[2,3-b]pyridin-3-ylmethyl)-pyridin-2-yl]-amine], less than 100 nM.
As for `COc1ccc(Nc2ccc(Cc3c[nH]c4ncnc(C)c34)c(F)n2)cn1` [Compound P-4002, [6-Fluoro-5-(4-methyl-7H-pyrrolo[2,3-d]pyrimidin-5-ylmethyl)-pyridin-2-yl]-(6-methoxy-pyridin-3-yl)-amine], the figure is less than 1000 nM; as for `Cc1cncc(Nc2ccc(Cc3c[nH]c4ncnc(C5CC5)c34)c(F)n2)c1` [Compound P-4038, [5-(4-Cyclopropyl-7H-pyrrolo[2,3-d]pyrimidin-5-ylmethyl)-6-fluoro-pyridin-2-yl]-(5-methyl-pyridin-3-yl)-amine], less than 1000 nM.
With `Cc1cncc(Nc2ccc(C(=O)c3c[nH]c4ncnc(C5CC5)c34)c(F)n2)c1` [Compound P-4039, (4-Cyclopropyl-7H-pyrrolo[2,3-d]pyrimidin-5-yl)-[2-fluoro-6-(5-methyl-pyridin-3-ylamino)-pyridin-3-yl]-methanone], the 50% inhibitory concentration (IC50) is less than 1000 nM.
Regarding `Fc1nc(NC2CCC(F)(F)CC2)ccc1Cc1c[nH]c2ncnc(NCC(F)(F)F)c12` [Compound P-4128, 5-[[6-[(4,4-difluorocyclohexyl)amino]-2-fluoro-3-pyridyl]methyl]-N-(2,2,2-trifluoroethyl)-7H-pyrrolo[2,3-d]pyrimidin-4-amine], the IC50 was greater than 1000 nM.
As for `Fc1nc(NC2CCC(F)(F)CC2)ccc1Cc1c[nH]c2ncnc(NC3CC3)c12` [Compound P-4129, N-cyclopropyl-5-[[6-[(4,4-difluorocyclohexyl)amino]-2-fluoro-3-pyridyl]methyl]-7H-pyrrolo[2,3-d]pyrimidin-4-amine], the figure is less than 1000 nM; as for `Fc1nc(Nc2ccc(C3CC3)nc2)ccc1Cc1c[nH]c2ncnc(NCC(F)(F)F)c12` [Compound P-4130, 5-[[6-[(6-cyclopropyl-3-pyridyl)amino]-2-fluoro-3-pyridyl]methyl]-N-(2,2,2-trifluoroethyl)-7H-pyrrolo[2,3-d]pyrimidin-4-amine], less than 1000 nM.
